Laboratory results from US7884136B2, “Modified-release formulations of a bupropion salt” (Biovail Laboratories International S.R.L., priority 2005, dated 2011).
Like-named read-outs stand apart in the source and are kept apart here. Marks after values point to notes of the source that are not given here.

What was measured:
[1] = Thermal analysis by TGA of bupropion salts; format: physicochemical; details: for TGA: weight lost between room temperature and 100° C.: room temperature to 100° C.
Procedure: 2-5 mg of each salt was placed in an aluminium pan and covered with its lid. DSC was run for each sample at the rate of 10° C./min (for HBr salt, different rates were used to investigate for polymorphs) from 30° C. to 400° C. TGA was also used for each of the HBr, HCl, maleate and tosylate salts.
(§1) The salts were analysed by DSC (at 10° C./min from 30° C. up to 400° C.) and the pH (aq. 0.5%), and the moisture content by KF were also measured. The TGA was performed on the HCl, maleate, tosylate and HBr salts.

[2] = Moisture content of bupropion salts by KF; format: physicochemical; details: for KF (moisture content), Original (Initial APIs): original API salts
Procedure: (§2) The eight salts were first evaluated by HPLC, KF, pH and DSC for purity, water content, aqueous pH and possible polymorphs.
as §1

[3] = Forced degradation stability study of bupropion salts spiked with placebo/excipients, closed vials, 40° C./75% RH, HPLC assay and impurities
Procedure: The stability of the salts was evaluated based on the formation of the main degradation products (see below) as determined by HPLC analysis and the % potency (or assay) of the API, after specific time periods in the stability chamber. The effect of the addition of solvents, such as water, ethanol and isopropyl alcohol, was also studied.
The samples of each salt and the spiked salts with the bupropion HCl XL were prepared under the conditions mentioned in Table 4. […] The stability of the bupropion salts were evaluated based on the formation of the main degradation product 3-chlorobenzoic acid (3-CBZ) and the intermediate degradation products diketone 827U76 and the ketohydroxyl derivatives (20U78 and 852U77) (Scheme 2).
As mentioned above, the stability samples were prepared in 2 mL vials and used directly for assay and impurity analysis by HPLC without further sample preparations to minimize errors.

[4] = pH of 0.5% aqueous solution of bupropion salts; format: physicochemical; details: for pH (aq. 0.5%), Original (Initial APIs): original API salts
Procedure: as §2, §1

[5] = Comparative forced degradation of bupropion HCl and HBr API salts, closed glass bottle, 40° C./75% RH, HPLC; format: physicochemical; details: closed glass bottle
Procedure: Further stability tests were performed by directly comparing bupropion HBr and bupropion HCl salts in forced degradation studies. […] At specified times, the material in the bottles was analyzed for the presence of degradation products and % potency (% assay).
The samples were exposed to the above conditions in a closed bottle for few days, and then subjected to HPLC analysis. The amount of the main degradation products present after treatment were compared with those amounts that were present initially.
The samples were analysed after 14 and 24 days (study-1) and 10 days (study II), in a quantitative manner by direct treatment of the whole content of the bottle as per the HPLC standard test method (P05.901.10).

[6] = TGA experiment at 100° C., loss of API salt over time; format: physicochemical; details: TGA at 100° C.
Procedure: The average weight of the excipients and the weight of the active pharmaceutical ingredient (API) present in the samples are presented in Table 72. […] FIG. 53 is a graph showing the loss of each salt over time in a TGA experiment at 100° C.

[7] = Release of bupropion base from bupropion HCl and HBr; format: physicochemical; details: 150 mg of the salt tested
Procedure: It was previously observed that when 150 mg of bupropion HCl was tested for its release of bupropion, the base value that was released was 130 mg.

[8] = Solubility of Bupropion HBr vs Bupropion HCl in water, EtOH, IPA; format: physicochemical
[9] = In IPA/EtOH, 32 days, closed vials
[10] = In water, 32 days, closed vials
[11] = repeat study, 40 C/75% RH, 10 Days, Lot# STN06973, hydrochloride
[12] = repeat study, 40 C/75% RH, 10 Days, Lot# STN06978, hydrochloride
[13] = repeat study, 40 C/75% RH, Initial, Lot# STN06973, hydrochloride
[14] = repeat study, 40 C/75% RH, Initial, Lot# STN06978, hydrochloride

With Bupropion tosylate the “TGA: residue at 400° C.” value [1] was 10.3%, the “TGA: weight lost between room temperature and 100° C.” value [1] was 1.3% and the “KF (moisture content), Original (Initial APIs)” value (shortened to “KF (moisture content), Original”) [2] was 1.71%. The “KF (moisture content), Original” value ([2]; listed as Bup-Tosylate) was 1.71* %, the “KF, After recrystallization (R&D), Tested after 2 Months” value ([2]; re-crystallized salt, 2 months) was 0.18% and the “KF, After recrystallization (R&D), Tested after 1 day” value ([2]; re-crystallized salt) was 0.23%. The “KF, After recrystallization (R&D), Tested after 1 day” value ([2]; re-crystallized salt, listed as Bup-Tosylate) was 023%, the “Content of impurity 852U77, order of salts” value (shortened to “Content of impurity 852U77”) [3, 9] was “fumarate > HBr ≈ HCl ≈ maleate ≈ tosylate” and the “Total imp., order of salts” value [3, 9] was “fumarate > maleate > HBr > HCl > tosylate”. The “Total imp., order of salts” value [3, 10] was “fumarate > HBr > HCl > tosylate > maleate”, the “pH (aq. 0.5%), Original (Initial APIs)” value ([4]; 0.5% aqueous solution) was 5.56 and the “pH (aq. 0.5%), After recrystallization (R&D), Tested after 1 day” value ([4]; re-crystallized salt, 0.5% aqueous solution) was 5.88.

In the case of Bupropion maleate, the “TGA: residue at 400° C.” value [1] is reported as “minimal residues”, the “TGA: thermally stable to at least” value ([1]; TGA) is reported as “at least 150 °C” and the “TGA: weight lost between room temperature and 100° C.” value [1] is reported as 1.3%. The “KF (moisture content), Original” value [2] was 0.10%, the “Content of impurity 3-CBZ, order of salts” value (from here on “Content of impurity 3-CBZ”) [3, 9] was “maleate > HBr > HCl > Fumarate” and the “Content of impurity 852U77” value [3, 9] was “fumarate > HBr ≈ HCl ≈ maleate ≈ tosylate”. The “Total imp., order of salts” value [3, 9] was “fumarate > maleate > HBr > HCl > tosylate”, the “Content of impurity 3-CBZ” value [3, 10] was “HCl > HBr ≈ maleate ≈ fumarate” and the “Content of impurity 852U77” value [3, 10] was “fumarate > HBr > maleate > HCl”. The “Total imp., order of salts” value [3, 10] was “fumarate > HBr > HCl > tosylate > maleate” and the “pH (aq. 0.5%), Original (Initial APIs)” value ([4]; 0.5% aqueous solution) was 4.29.

With `CC(NC(C)(C)C)C(=O)c1cccc(Cl)c1.Cl` (racemic) [Bupropion HCl, (±)-1-(3-chlorophenyl)-2-[(1,1-dimethylethyl)amino]-1-propanone hydrochloride, reference compound] the “% Assay” value ([5]; 40° C./75% RH, 14-Days) was 98.5%, the “% Impurities 3-CBZ” value ([5]; 40° C./75% RH, 14-Days) was 0.019% and the “% Impurities 20U78/dilu” value ([5]; 40° C./75% RH, 14-Days) was 0.038%. For the same compound, the “% Impurities 852U77” value ([5]; 40° C./75% RH, 14-Days) was 0.010%, the “% Impurities Total unknown” value ([5]; 40° C./75% RH, 14-Days) was 0.038% and the “Total (%) impurities” value ([5]; 40° C./75% RH, 14-Days) was 0.11%. The “% Assay” value ([5]; 40° C./75% RH, 24 Days) was 98.5%, the “% Impurities 3-CBZ” value ([5]; 40° C./75% RH, 24 Days) was 0.082% and the “% Impurities 20U78/dilu” value ([5]; 40° C./75% RH, 24 Days) was 0.040%. For the same compound, the “% Impurities 827U76” value ([5]; 40° C./75% RH, 24 Days) was 0.102%, the “% Impurities 852U77” value ([5]; 40° C./75% RH, 24 Days) was 0.023% and the “% Impurities Total unknown” value ([5]; 40° C./75% RH, 24 Days) was 0.049%. The “Total (%) impurities” value ([5]; 40° C./75% RH, 24 Days) was 0.30%, the “% Assay” value ([5]; 40° C./75% RH, Initial) was 100.4% and the “% Impurities 3-CBZ” value ([5]; 40° C./75% RH, Initial) was 0.002%. The “% Impurities 20U78/dilu” value ([5]; 40° C./75% RH, Initial) was 0.043%, the “% Impurities 852U77” value ([5]; 40° C./75% RH, Initial) was 0.003% and the “% Impurities Total unknown” value ([5]; 40° C./75% RH, Initial) was 0.044%. For the same compound, the “Total (%) impurities” value ([5]; 40° C./75% RH, Initial) was 0.09%, the “% Assay” value [5, 11] was 96.3% and the “% Impurities 3-CBZ” value [5, 11] was 0.110%. For the same compound, the “% Impurities 20U78/dilu” value [5, 11] was 0.047%, the “% Impurities 827U76” value [5, 11] was 0.045% and the “% Impurities 852U77” value [5, 11] was 0.047%. For the same compound, the “% Impurities Total unknown” value [5, 11] was 0.187%, the “Total (%) impurities” value [5, 11] was 0.44% and the “% Assay” value [5, 12] was 96.5%. For the same compound, the “% Impurities 3-CBZ” value [5, 12] was 0.278%, the “% Impurities 20U78/dilu” value [5, 12] was 0.057% and the “% Impurities 827U76” value [5, 12] was 0.141%. The “% Impurities 852U77” value [5, 12] was 0.124%, the “% Impurities Total unknown” value [5, 12] was 0.137% and the “Total (%) impurities” value [5, 12] was 0.74%. The “% Assay” value [5, 13] was 99.4%, the “% Impurities 3-CBZ” value [5, 13] was 0.003% and the “% Impurities 20U78/dilu” value [5, 13] was 0.040%. For the same compound, the “% Impurities Total unknown” value [5, 13] was 0.053%, the “Total (%) impurities” value [5, 13] was 0.10% and the “% Assay” value [5, 14] was 99.1%. For the same compound, the “% Impurities 3-CBZ” value [5, 14] was 0.002%, the “% Impurities 20U78/dilu” value [5, 14] was 0.04% and the “% Impurities Total unknown” value [5, 14] was 0.165%. The “Total (%) impurities” value [5, 14] was 0.21%, the “Disproportionation of the salt at elevated temperature” value [6] was “disproportionation of the HCl salt occurs with concomitant loss of gaseous HCl” and the “TGA: residue at 400° C.” value [1] was “minimal residues”. The “Base value of bupropion released” value [7] was 130 mg, the solubility ([8]; ethanol, organic solvent or mixture, EtOH, read-out: Solubility, EtOH) was 80 mg/mL and the solubility ([8]; isopropanol, organic solvent or mixture, IPA, read-out: Solubility, IPA) was 10 mg/mL. The solubility ([8]; water, read-out: Solubility, Water) was 270 mg/mL, the “Moisture Content (KF)” value ([2]; Table 3, supplier API) was 0.01% and the “KF (moisture content), Original” value [2] was 0.0%. For the same compound, the “Order of stability (assay) with IPA & EtOH” value ([3]; DS and excipients spiked with IPA & EtOH, 32 days, closed vials, 40° C.) was “HCl>HBr>tosylate>maleate>fumarate”, the “Order of stability (assay) with water” value ([3]; DS and excipients spiked with water, 32 days, closed vials, 40° C.) was “tosylate>maleate>HCl>HBr>fumarate” and the “Content of impurity 3-CBZ” value [3, 9] was “maleate > HBr > HCl > Fumarate”. The “Content of impurity 852U77” value [3, 9] was “fumarate > HBr ≈ HCl ≈ maleate ≈ tosylate”, the “Total imp., order of salts” value [3, 9] was “fumarate > maleate > HBr > HCl > tosylate” and the “Content of impurity 3-CBZ” value [3, 10] was “HCl > HBr ≈ maleate ≈ fumarate”. The “Content of impurity 852U77” value [3, 10] was “fumarate > HBr > maleate > HCl”, the “Total imp., order of salts” value [3, 10] was “fumarate > HBr > HCl > tosylate > maleate” and the “Order of stability (assay, % potency)” value ([3]; salt plus excipients, 20 days, closed vial, 40° C./75% RH) was “HBr>HCl=tosylate>fumarate>maleate”. For the same compound, the “pH (aq. 0.5%), Original (Initial APIs)” value ([4]; 0.5% aqueous solution) was 5.90 and the “pH (aq. 0.5%)” value ([4]; Table 3, supplier API) was 5.90.
